Data on one compound can be found in US20090111781A1, “Use of Cymipristone Type Compounds in Aids Treatment” (SHANGHAI THREE-ALLIANCE BIOTECHNOLOGIES CO., LTD., priority 2005, published 2009).

In one data set the target is estrogen receptor ERβ (Homo sapiens, UniProt Q92731). The experiment in a line: Binding activity on human nuclear receptor ERβ. The note with it: mean ± SD, n = 4. As for the experimental part:
Buffer solution is composed of 25 mM NaPO4, 20 mM NaMoO4, 10 mM KF and 10% glycerol (pH=7.3) and stored under 4° C. Stock solution is prepared with CHAPS and DTT and stored under −20° C. […] Add 2.5 μl/hole into 96-pore plate. Take out appropriate amount of buffer solution reserve into solution to make the final concentration of CHAPS and DDT to become 0.25 mM and 2 mM respectively. Add protease inhibitors (aprotinin and leupeptin) to make its final concentration to become 1 μg/μl, and place in an ice bath. After adding human nuclear receptor GR (1:8), PR (1:100), ER (1:2000), AR (1:200) and MR (1:40) into the reaction system respectively, adequately mix suitable quantity of [^3H]-dexamethasone, [^3H]-progesterone, [^3H]-estradiol and [^3H]-DHT (from Amersham), rapidly add into 96-pore plate (100 μl/pore) and incubate overnight under 4° C. On the next day, add 25 μl of hydroxyapatite suspension into each pore and mix with shaking. After incubating for 10 min, separate by centrifuge for 3 min at 2500 rpm. The precipitate is washed with 100 μl of buffer solution and separated by centrifuge twice. Add 150 μl of scintillation solution (from Perkin Elmer) into each pore, mix with shaking and count by MicroBeta counter.

Data set [1] has as its system HIV-1 AZT-resistant strain 018c P24 antigen. The experiment in a line: Inhibition of HIV-1 018c P24 antigen in PBMC cell culture. It counts as cell-based. To be noted: for EC50: Human immunodeficiency virus 1, PBMC, 2 h, PBMC, administration after adsorbing 2 hours; for EC50 / SI: 018c; for SI: SI=CC50/EC50. As for the experimental part:
Collect cells with curette, infect cells with 10^−2 AZT sensitive (018a) or AZT resistant (018c) virus strain liquid, and adsorb for 2 hours, Wash off unabsorbed virus with 1640 culture medium without serum, prepare cells infected by virus to 1×10^6/ml with culture solution, and inoculate on 96-pore culture plate, 100 μl/pore. […] Set cell control group and virus infected cell control group. Incubate under 37° C. and 5% CO2. On the fourth day (96 hours), pipette out the supernatant liquid and store under −20° C. for determination of HIV-1 P24 antigen titer and calculation of drug inhibitory action. Add MTT staining to cells for determination of cytotoxicity. Determination of cytotoxicity by MTT staining: Add 10 μl of 5 mg/ml MTT stain into each pore, continue to incubate under 37° C., 5% CO2 and saturated humidity for 4 hours. […] Determine the HIV-1 P24 antigen titer according to the operation procedure provided by the HIV-1 P24 antigen reagent kit. Compare the drug-added group with virus control group. […] Calculation method of 50% toxic concentration (CC50), 50% effective concentration (EC50) and selection index (SI):
(3) Calculation Method of Selection Index (SI) on HIV-1 P24 Antigen in Cell Culture SI=CC50/EC50

A short description of data set [2]: Cytotoxicity in MT-4 cell culture by MTT staining method. In kind it is cell-based, human. The note with it: human, MT-4 cells infected with HIV-1 IIIB; MT-4 cell culture, MTT staining; read-out: Cytotoxicity TC50, MTT. As for the experimental part:
(§1) Set virus TCID50 determination group and cell control group. Each concentration is duplicated in two pore. Incubate under 37° C., 5% CO2 and saturated humidity in an incubator. Add MTT into each pore of cell culture plate pipetted supernatant liquid to stain, continue to incubate for 4 hours, add decolorizing liquid, determine OD value at 570 nm wavelength by enzyme-linked apparatus, and [NT]50 and TC0 as above. […] [formula]
(Tetrazolium assays rely on reduction of a dye to a coloured formazan, in cell work by metabolically active cells.)

Data set [3] deals with MT-4 cells. Described as above. It counts as cell-based, human. As for the experimental part:
as §1

Data set [4] in a line: Cytotoxicity in MT-4 cell culture by cytopathic method (CPE). In kind it is cell-based, human. To be noted: human, MT-4 cells infected with HIV-1 IIIB, read-out: Cytotoxicity TC50, CPE. As for the experimental part:
(§2) Set virus TCID50 determination group and cell control group. Each concentration is duplicated in two pore. Incubate under 37° C., 5% CO2 and saturated humidity in an incubator. Daily observe the cytopathy in above culture plate by microscope, record the degree of cytopathy with routine method, and calculate the 50% toxic concentration (TC50) and maximum nontoxic concentration (TC0) of drug according to Reed & Muench method. […] [formula]
For orientation: Damage to the host cells serves as the signal in cytopathic effect assays.

Data set [5] has as its system MT-4 cells. The description is as above. It counts as cell-based, human. The protocol:
as §2

The test system of another data set is HIV-1 IIIB P24 antigen. The data set is described as follows: microbe, parasite or virus in culture. In kind it is cell-based. The note with it: for Selection index (SI): MT-4. As for the experimental part: (1) Inoculate MT4 cells into 96-pore cell culture plate, 1×10^5 cells/ml, infect with HIV-1-IIIB virus strain of about 100TCID50, and add cymipristone solution at the same time, its concentration is below 100 μg/ml, triply diluted to 8 concentrations. Set virus TCID50 determination group and cell control group. Each concentration is duplicated in two pore. Incubate under 37° C., 5% CO2 and saturated humidity in an incubator.
Daily observe the cytopathy in above culture plate by microscope, record the degree of cytopathy with routine method, and calculate the 50% toxic concentration (TC50) and maximum nontoxic concentration (TC0) of drug according to Reed & Muench method. (3) Determination on HIV-1 P24 Antigen with Supernatant Liquid Pipetted from Cell Culture Plate Added Drug After 4 days (96 hours), pipette out the supernatant liquid from cell culture added drug and freeze HIV-1 P24 antigen used for determination.
Take the supernatant liquid on the fourth day, combine the liquid from two pore, and dilute by 1:100, Determine the HIV-1 P24 antigen titer (OD value) by ELISA method according to the instruction of HIV-1 P24 antigen reagent kit. […] At the same time, determine the 50% infection concentration of HIV-1/IIIB virus strain in MT-4 cells and virus infection quantity (TCID50).
(1) Calculation of TC50, IC50 and SI of Drug in Cell Culture According to Reed & Muench Method

[6] abbreviates: Human immunodeficiency virus 1, IIIB, MT4, read-out: Inhibition rate on HIV-1 P24 antigen.

Converted amounts (≈) assume the structure as drawn. “And” between values parts separate entries of the source, which are not always exact repeats. Equal entries are not always repeated.

Sequence of estrogen receptor ERβ (Q92731 whole entry): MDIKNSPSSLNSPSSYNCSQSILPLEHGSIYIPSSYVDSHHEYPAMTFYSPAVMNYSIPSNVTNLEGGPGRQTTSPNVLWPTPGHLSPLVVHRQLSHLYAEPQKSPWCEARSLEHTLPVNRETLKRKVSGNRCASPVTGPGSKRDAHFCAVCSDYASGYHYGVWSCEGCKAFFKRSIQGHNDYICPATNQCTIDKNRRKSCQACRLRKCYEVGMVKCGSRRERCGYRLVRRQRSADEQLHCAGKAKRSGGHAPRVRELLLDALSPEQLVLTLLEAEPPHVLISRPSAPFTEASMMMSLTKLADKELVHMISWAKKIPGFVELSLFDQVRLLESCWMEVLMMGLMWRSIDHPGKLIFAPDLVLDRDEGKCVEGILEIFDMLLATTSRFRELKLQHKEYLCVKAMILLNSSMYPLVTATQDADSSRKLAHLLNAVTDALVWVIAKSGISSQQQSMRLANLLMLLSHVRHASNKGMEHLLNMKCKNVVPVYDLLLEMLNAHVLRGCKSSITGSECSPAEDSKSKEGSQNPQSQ

For orientation: IC50 means the concentration at which inhibition is half-maximal. What is called EC50 is the concentration giving half of the maximal effect. A lower EC50 goes with a more potent agent. In general, inhibition refers to the change of the read-out against control, counted positive when it falls. Compound `CC#C[C@]1(O)CC[C@H]2[C@@H]3CCC4=CC(=O)CCC4=C3[C@@H](c3ccc(N(C)C4CCCCC4)cc3)C[C@@]21C` [Cymipristone, 11β-[4-(N-methyl-N-cyclohexylamino)phenyl]-17α-(1-propynyl)-17β-hydroxyl-4,9-estradiene-3-one] came in with a 50% inhibitory concentration (IC50) at estrogen receptor ERβ of 0.2787 ± 0.00063 µM. In data set [1] (Average), this compound came in with an EC50 of 7.9 µg/mL (≈ 15.9 µM) and an SI of 13.18. Further, in data set [1] (Experiment 1), the EC50 is 8.42 µg/mL (≈ 16.9 µM) and the SI was 12.21. Besides, in data set [1] (Experiment 2), the EC50 amounted to 7.38 µg/mL (≈ 14.8 µM) and the SI was 14.15. Also, the “Cross resistance with zidovudine (AZT) (in words)” value in data set [1] (conclusion) is “no cross resistance”. In data set [2], the CC50 at 96 h is 60.9 µM. In addition, in the data set with MT-4 cells [3] (MT-4 cell culture, MTT staining), the “Cytotoxicity TC50, MTT” value was found to be 30.26 µg/mL. In the data set with MT-4 cells [3] (conclusion), the “Toxicity on cultured human T-lymphocyte MT-4 (in words)” value is on record as “no significant toxicity”. The CC50 in data set [4] worked out at 15.5 µM. Also, in the data set with MT-4 cells [5], the “Cytotoxicity TC50, CPE” value worked out at 7.704 µg/mL. In addition, the IC50 in the data set with HIV-1 IIIB P24 antigen (Human immunodeficiency virus 1, IIIB, MT4, read-out: IC50 on HIV-1 IIIB P24 antigen) is 1.3 µg/mL and 2.62 µM. Moreover, in the data set with HIV-1 IIIB P24 antigen (setting [6]), the inhibition at 0.05 µg/mL was found to be 14%, the inhibition at 0.14 µg/mL was 17%, the inhibition at 0.41 µg/mL turned out to be 13% and the inhibition at 1.23 µg/mL is 29%. Further, the inhibition at 3.7 µg/mL in the data set on HIV-1 IIIB P24 antigen (setting [6]) came out at 93%. In the data set with HIV-1 IIIB P24 antigen (SI=TC50/IC50, CPE cytotoxicity), the “Selection index (SI)” value is reported as 5.93. For the same compound, the “Selection index (SI)” value in the data set with HIV-1 IIIB P24 antigen (SI=TC50/IC50, MTT cytotoxicity) was found to be 23.28. Also, the “Effect on HIV-1 P24 antigen formation in MT-4 cell culture (in words)” value in the data set on HIV-1 IIIB P24 antigen (conclusion) is reported as “significant inhibitory effect”.
